# Reference: patent US4333930A, “Orthoarylideneaminophenethylamines and pharmaceutical compositions” (priority 1980, dated 1982)
# Structures can show the parent of a compound that is named as a salt. Where two headings read alike, the source gives them in different places.
# Key:
# [1] = system: number of escapes the animal made in 5 minutes; assay: Escape test, Table 3; format: in vivo, mouse
# Text: The products of the invention were always administered orally in 6% gum base.
# The notation NS signifies that the difference between the results noted for the product and the results noted for the excipient alone is not significant at the threshold 0.05 according to the Student t Test.
# phenylbenzoquinone (PBQ) = assay: Analgesic activity using phenylbenzoquinone (PBQ) as noxious agent, Table 2; format: in vivo, male Swiss mouse; details: for inhibition in vivo at 100 mg/kg / inhibition in vivo at 200 mg/kg / inhibition in vivo at 50 mg/kg: Mus musculus
# Procedure: The analgesic activity was determined with the male Swiss mouse using phenylbenzoquinone (PBQ) (a variation of the method of Siegmund et al, Proc. Soc. Exp. Med., […], 95, 729-31) as the noxious agent. Twenty-eightminutes after having administered the test products in a suspension in a 6% gum base, the PBQ solution was injected. The mice were then observed ca. 5 mn. for the next five minutes.
# % of analgesic activity as a function of
# the dose expressed in mg/kg
# [2] = Oral toxicity (mortality) in the mouse, Table 1; format: in vivo; details: mouse, in vivo, po, Swiss mice, 14 days
# Procedure: (§1) The mortality percentages caused by the products of the present invention administered orally to Swiss mice are shown in Table 1. The animals, free of specific pathological organism were housed in an air conditioned room from 24 to 48 hours before the start of the experiments. They were divided up into lots of 5 males and 5 females. With the animals unfed for 24 hours, the substances were administered intragastrically in a base of 6% gum arabic in a volume equal to 0.1 ml for 10 g of animal weight. The mortality was recorded at 14 days.
# (§2) % of mortality as a function of the dose
# [3] = system: ptosis induced by reserpine; assay: Antagonism of ptosis induced by reserpine, Table 6; format: in vivo; details: read-out: % of inhibition of ptosis induced by reserpine
# Text: (§3) The psychotropic profile of the present invention products has been characterized with the animals in numerous tests some of whose results are shown hereinafter. The products of the invention were always administered orally in 6% gum base.
# (§4) Certain tests made it possible to show antidepressive activities. These are tests of antagonism to the effects of reserpine, oxotremorine (according to Everett G. M. et al, Science, 1956, 124, 79 and Levy J. et al, Therapie 1965, 20, 265) and to despair (according to Porsolt P. D. et al, Eur. J. Pharmacol., 1978, 47, 379-91).
# % of inhibition of ptosis induced by reserpine
# as a function of the dose administered orally
# [4] = system: trembling induced by oxotremorine; assay: Antagonism of trembling induced by oxotremorine, Table 7; format: in vivo; details: oral, read-out: % of inhibition of trembling induced by oxotremorine
# Text: as §3, §4
# % of inhibition of trembling induced by
# oxotremorine as a function of the dose
# administered expressed in mg/kg
# Swiss mice = assay: Oral toxicity (mortality) in the mouse, Table 1; format: in vivo; details: 14 days, 20160 min
# Procedure: as §1, §2
# [5] = system: number of displacements of the animal; assay: Four plates test (anxiolytic activity), Table 5; format: in vivo; details: oral, mouse
# Text: as §3
# A certain number of products manifest an anxiolytic activity evidenced in the test with the four plates with the mouse (Table 5).
# % of increase in the number of displacements of the
# animal as a function of the dose expressed in mg/kg
# [6] = read-out: % of analgesic activity, 100 mg/kg, male Swiss mouse, PBQ
# [7] = read-out: % of analgesic activity, 200 mg/kg, male Swiss mouse, PBQ
# [8] = Mus musculus, po, 5 min, read-out: % of activity (variation of the number of escapes)
# [9] = 100 mg/kg, male Swiss mouse, PBQ, read-out: % of analgesic activity
# [10] = 200 mg/kg, male Swiss mouse, PBQ, read-out: % of analgesic activity
# [11] = 5 min, oral, mouse, 5 minutes, read-out: % of activity (variation of the number of escapes)
# [12] = 50 mg/kg, male Swiss mouse, PBQ, read-out: % of analgesic activity
# [13] = 5 min, 50 mg/kg, oral, mouse, 5 minutes, read-out: % of activity (variation of the number of escapes)
# [14] = 5 min, 100 mg/kg, oral, mouse, 5 minutes, read-out: % of activity (variation of the number of escapes)
Molecule,inhibition in vivo at 100 mg/kg (phenylbenzoquinone (PBQ); [6]),inhibition in vivo at 200 mg/kg (phenylbenzoquinone (PBQ); [7]),mortality at 336 h ([2]; 1000 mg/kg),mortality at 336 h ([2]; 1500 mg/kg),mortality at 336 h ([2]; 2000 mg/kg),inhibition in vivo at 100 mg/kg (phenylbenzoquinone (PBQ); [9]),inhibition in vivo at 200 mg/kg (phenylbenzoquinone (PBQ); [10]),"change in vivo at 200 mg/kg [1, 11]",change in vivo at 50 mg/kg [4],change in vivo at 100 mg/kg [4],change in vivo at 200 mg/kg [4],inhibition in vivo at 50 mg/kg (phenylbenzoquinone (PBQ); [12]),also measured
"2-(2-N,N-dimethylamino-1-methylethyl)-N-pyridylidene-3 aniline [COR 01 213]",–,–,–,–,–,–,–,–,–,–,–,–,"% of activity (variation of the number of escapes) ([1]; 100 mg/kg, oral, mouse, 5 minutes): -20%"
"CC(Cc1ccccc1N=Cc1cccnc1)N(C)C (stereo not drawn) [COR 01 214, 2-(2-N,N-dimethylamino-2-methylethyl)-N-pyridylidene-3 aniline]",21%,30%,0%,30%,70%,–,–,–,–,–,–,–,–
CC(C)(C)NCCc1cc2c(cc1N=Cc1cccnc1)OCO2 [COR 01 195],24%,31%,0%,20%,30%,–,–,–,–,–,–,–,"change in vivo at 50 mg/kg ([3]; po): -22%; change in vivo at 100 mg/kg ([3]; po): -22%; change in vivo at 3 mg/kg [1, 8]: 54%; change in vivo at 5 mg/kg [1, 8]: 53%; change in vivo at 50 mg/kg [1, 8]: 19%; change in vivo at 100 mg/kg [1, 8]: 28%"
CN1CCN(CCc2ccccc2N=Cc2cccnc2)CC1 [COR 01 205],–,–,0%,10%,10%,10%,36%,-34%,-30%,-30%,-40%,–,"change in vivo at 50 mg/kg ([3]; 50 mg/kg, oral): -31%; change in vivo at 100 mg/kg ([3]; 100 mg/kg, oral): -25%; change in vivo at 200 mg/kg ([3]; 200 mg/kg, oral): -31%"
C(=Nc1cc2c(cc1CCN1CCCC1)OCO2)c1cccnc1 [COR 01 186],–,–,–,50%,–,–,–,–,–,–,–,–,% of mortality (Swiss mice; 1000 mg/kg): 40%; mortality at 336 h ([2]; 750 mg/kg): 0%
CN(C)CCc1cc2c(cc1N=Cc1cccs1)OCO2 [COR 01 171],–,–,–,–,–,–,–,–,–,–,–,–,"% of analgesic activity (phenylbenzoquinone (PBQ); 50 mg/kg, male Swiss mouse, PBQ): 51%; % of mortality (Swiss mice; 150 mg/kg): 20%; % of mortality (Swiss mice; 250 mg/kg): 80%; % of mortality (Swiss mice; 500 mg/kg): 90%"
"CN(C)CCc1cc2c(cc1N=Cc1ccccc1C(=O)O)OCO2 [COR 01 142, N-6-(2-N,N-dimethylaminoethyl)-1,3-benzodioxol-5-yl-2-formimidoylbenzoic acid, internal salt]",–,–,0%,–,50%,20%,10%,–,–,–,–,22%,–
"CC(=O)Oc1ccccc1C(=O)O [Acetylsalicyclic acid, reference compound]",55%,61%,–,–,–,–,–,–,–,–,–,–,–
C(=Nc1cc2c(cc1CCN1CCOCC1)OCO2)c1cccs1 [COR 01 180],–,–,70%,–,–,26%,34%,-75%,-22%,-44%,-44%,18%,"mortality at 336 h ([2]; 500 mg/kg): 0%; change in vivo at 2.5 mg/kg ([3]; 2.5 mg/kg, oral): -18%; change in vivo at 5 mg/kg ([3]; 5 mg/kg, oral): -34%; change in vivo at 10 mg/kg ([3]; 10 mg/kg, oral): -26%; change in vivo at 25 mg/kg ([3]; 25 mg/kg, oral): -20%; % of increase in the number of displacements of the animal ([5]; 25 mg/kg): +69%; % of increase in the number of displacements of the animal ([5]; 50 mg/kg): +88%; % of increase in the number of displacements of the animal ([5]; 75 mg/kg): +35%; change in vivo at 50 mg/kg [1, 13]: -21%; change in vivo at 100 mg/kg [1, 14]: -37%"
C(=Nc1cc2c(cc1CCN1CCOCC1)OCO2)c1cccnc1 [COR 01 204],–,–,–,0%,10%,45%,42%,-24%,-30%,-20%,-30%,0%,"change in vivo at 5 mg/kg ([1]; 5 min, 5 mg/kg, oral, mouse, 5 minutes, read-out: % of activity (variation of the number of escapes)): -28%; change in vivo at 25 mg/kg ([1]; 5 min, 25 mg/kg, oral, mouse, 5 minutes, read-out: % of activity (variation of the number of escapes)): -31%; change in vivo at 50 mg/kg [1, 13]: -24%; change in vivo at 75 mg/kg ([1]; 5 min, 75 mg/kg, oral, mouse, 5 minutes, read-out: % of activity (variation of the number of escapes)): -20%; change in vivo at 100 mg/kg [1, 14]: -15%"
